In the supplement of paper PMC4862054:
“And” between values parts separate entries of the source, which are not always exact repeats. Equal values may be shown once.

These compounds were tested on BT-474 (assay: normalised viability (% of control), CellTiter-Blue; higher = more viable cells (about 100 = DMSO control)). Conditions: 1 nM; incubation time: 72 h.
Summary of the method: (§1)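 Compound dissolved in 5 µl medium was pre-loaded into 384-well plates, and breast cancer cell lines in 20 µl suspension were seeded on top and incubated 72 h. After adding 2.5 µl CellTiter-Blue reagent for 2 h at 37 °C, fluorescence was read at 560/590 nm. Plates were normalised to vehicle (100) and a positive kill control (0), with Z'-factor quality control. Each value is normalised viability at a single listed concentration from the series.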

Structure (SMILES) | normalised viability
O=C1c2c(O)ccc(O)c2C(=O)c2c(NCCNCCO)ccc(NCCNCCO)c21 [Mitoxantrone] | 99.4%
CCN(CC)CCNC(=O)c1c(C)[nH]c(/C=C2\C(=O)Nc3ccc(F)cc32)c1C [Sunitinib] | 110% and 97.1%
CC[C@@]1(O)C(=O)OCc2c1cc1n(c2=O)Cc2cc3c(CN(C)C)c(O)ccc3nc2-1 [Topotecan] | 127%

Same assay, conditions: 2.5 nM; incubation time: 72 h

Structure (SMILES) | normalised viability
c1cc(CN2CCCNCCNCCCNCC2)ccc1CN1CCCNCCNCCCNCC1 [Plerixafor] | 101%

Same assay, conditions: 10 nM; incubation time: 72 h

Structure (SMILES) | normalised viability
Nc1ccccc1NC(=O)c1ccc(CNc2nccc(-c3cccnc3)n2)cc1 [Mocetinostat] | 113%
COc1nc(N)nc2c1ncn2[C@@H]1O[C@H](CO)[C@@H](O)[C@@H]1O [Nelarabine] | 96.7% and 102%
Cc1ccc(Nc2nccc(N(C)c3ccc4c(C)n(C)nc4c3)n2)cc1S(N)(=O)=O [Pazopanib] | 105%
O=C(CCBr)N1CCN(C(=O)CCBr)CC1 [Pipobroman] | 120%
C[C@]12C=CC(=O)C=C1CC[C@@H]1[C@@H]2[C@@H](O)C[C@@]2(C)[C@H]1CC[C@]2(O)C(=O)CO [Prednisolone] | 125%

Same assay, conditions: 100 nM; incubation time: 72 h

Structure (SMILES) | normalised viability
O=C1c2c(O)ccc(O)c2C(=O)c2c(NCCNCCO)ccc(NCCNCCO)c21 [Mitoxantrone] | 71.1%
CCN(CC)CCNC(=O)c1c(C)[nH]c(/C=C2\C(=O)Nc3ccc(F)cc32)c1C [Sunitinib] | 115% and 92.5%
CC[C@@]1(O)C(=O)OCc2c1cc1n(c2=O)Cc2cc3c(CN(C)C)c(O)ccc3nc2-1 [Topotecan] | 112%

Same assay, conditions: 250 nM; incubation time: 72 h

Structure (SMILES) | normalised viability
c1cc(CN2CCCNCCNCCCNCC2)ccc1CN1CCCNCCNCCCNCC1 [Plerixafor] | 117%

Same assay, conditions: 1000 nM; incubation time: 72 h

Structure (SMILES) | normalised viability
O=C1c2c(O)ccc(O)c2C(=O)c2c(NCCNCCO)ccc(NCCNCCO)c21 [Mitoxantrone] | 42%
Nc1ccccc1NC(=O)c1ccc(CNc2nccc(-c3cccnc3)n2)cc1 [Mocetinostat] | 96.8%
COc1nc(N)nc2c1ncn2[C@@H]1O[C@H](CO)[C@@H](O)[C@@H]1O [Nelarabine] | 92.1% and 93.3%
Cc1ccc(Nc2nccc(N(C)c3ccc4c(C)n(C)nc4c3)n2)cc1S(N)(=O)=O [Pazopanib] | 109%
O=C(CCBr)N1CCN(C(=O)CCBr)CC1 [Pipobroman] | 102%
C[C@]12C=CC(=O)C=C1CC[C@@H]1[C@@H]2[C@@H](O)C[C@@]2(C)[C@H]1CC[C@]2(O)C(=O)CO [Prednisolone] | 98.8%
CNC(=O)c1cc(Oc2ccc(NC(=O)Nc3ccc(Cl)c(C(F)(F)F)c3)cc2)ccn1 [Sorafenib] | 130% and 106%
CC[C@@]1(O)C(=O)OCc2c1cc1n(c2=O)Cc2cc3c(CN(C)C)c(O)ccc3nc2-1 [Topotecan] | 77.9%

Same assay, conditions: 2500 nM; incubation time: 72 h

Structure (SMILES) | normalised viability
c1cc(CN2CCCNCCNCCCNCC2)ccc1CN1CCCNCCNCCCNCC1 [Plerixafor] | 97.6%

Same assay, conditions: 10000 nM; incubation time: 72 h

Structure (SMILES) | normalised viability
Nc1ccccc1NC(=O)c1ccc(CNc2nccc(-c3cccnc3)n2)cc1 [Mocetinostat] | 25.6%
COc1nc(N)nc2c1ncn2[C@@H]1O[C@H](CO)[C@@H](O)[C@@H]1O [Nelarabine] | 92.8% and 94.6%
Cc1ccc(Nc2nccc(N(C)c3ccc4c(C)n(C)nc4c3)n2)cc1S(N)(=O)=O [Pazopanib] | 104%
O=C(CCBr)N1CCN(C(=O)CCBr)CC1 [Pipobroman] | 133%
C[C@]12C=CC(=O)C=C1CC[C@@H]1[C@@H]2[C@@H](O)C[C@@]2(C)[C@H]1CC[C@]2(O)C(=O)CO [Prednisolone] | 100%

What follows are compounds tested on CAL-51 in the same assay as above. Conditions: 0.3 nM; incubation time: 72 h.
Summary of the method: as §1

Structure (SMILES) | normalised viability
O=C1c2c(O)ccc(O)c2C(=O)c2c(NCCNCCO)ccc(NCCNCCO)c21 [Mitoxantrone] | 112%
CNC(=O)c1cc(Oc2ccc(NC(=O)Nc3ccc(Cl)c(C(F)(F)F)c3)cc2)ccn1 [Sorafenib] | 112% and 107%
CCN(CC)CCNC(=O)c1c(C)[nH]c(/C=C2\C(=O)Nc3ccc(F)cc32)c1C [Sunitinib] | 116% and 93.3%
CC[C@@]1(O)C(=O)OCc2c1cc1n(c2=O)Cc2cc3c(CN(C)C)c(O)ccc3nc2-1 [Topotecan] | 99%

Same assay, conditions: 0.75 nM; incubation time: 72 h

Structure (SMILES) | normalised viability
c1cc(CN2CCCNCCNCCCNCC2)ccc1CN1CCCNCCNCCCNCC1 [Plerixafor] | 106%

Same assay, conditions: 3 nM; incubation time: 72 h

Structure (SMILES) | normalised viability
O=C1c2c(O)ccc(O)c2C(=O)c2c(NCCNCCO)ccc(NCCNCCO)c21 [Mitoxantrone] | 111%
Nc1ccccc1NC(=O)c1ccc(CNc2nccc(-c3cccnc3)n2)cc1 [Mocetinostat] | 106%
COc1nc(N)nc2c1ncn2[C@@H]1O[C@H](CO)[C@@H](O)[C@@H]1O [Nelarabine] | 106% and 105%
Cc1ccc(Nc2nccc(N(C)c3ccc4c(C)n(C)nc4c3)n2)cc1S(N)(=O)=O [Pazopanib] | 108%
O=C(CCBr)N1CCN(C(=O)CCBr)CC1 [Pipobroman] | 114%
C[C@]12C=CC(=O)C=C1CC[C@@H]1[C@@H]2[C@@H](O)C[C@@]2(C)[C@H]1CC[C@]2(O)C(=O)CO [Prednisolone] | 102%
CNC(=O)c1cc(Oc2ccc(NC(=O)Nc3ccc(Cl)c(C(F)(F)F)c3)cc2)ccn1 [Sorafenib] | 108% and 99.3%
CC[C@@]1(O)C(=O)OCc2c1cc1n(c2=O)Cc2cc3c(CN(C)C)c(O)ccc3nc2-1 [Topotecan] | 96.5%

Same assay, conditions: 7.5 nM; incubation time: 72 h

Structure (SMILES) | normalised viability
c1cc(CN2CCCNCCNCCCNCC2)ccc1CN1CCCNCCNCCCNCC1 [Plerixafor] | 99%

Same assay, conditions: 10 nM; incubation time: 72 h

Structure (SMILES) | normalised viability
O=C1c2c(O)ccc(O)c2C(=O)c2c(NCCNCCO)ccc(NCCNCCO)c21 [Mitoxantrone] | 61.3%
CNC(=O)c1cc(Oc2ccc(NC(=O)Nc3ccc(Cl)c(C(F)(F)F)c3)cc2)ccn1 [Sorafenib] | 98.3% and 96.8%
CCN(CC)CCNC(=O)c1c(C)[nH]c(/C=C2\C(=O)Nc3ccc(F)cc32)c1C [Sunitinib] | 107% and 91.1%
CC[C@@]1(O)C(=O)OCc2c1cc1n(c2=O)Cc2cc3c(CN(C)C)c(O)ccc3nc2-1 [Topotecan] | 96.8%

Same assay, conditions: 25 nM; incubation time: 72 h

Structure (SMILES) | normalised viability
c1cc(CN2CCCNCCNCCCNCC2)ccc1CN1CCCNCCNCCCNCC1 [Plerixafor] | 103%

Same assay, conditions: 30 nM; incubation time: 72 h

Structure (SMILES) | normalised viability
Nc1ccccc1NC(=O)c1ccc(CNc2nccc(-c3cccnc3)n2)cc1 [Mocetinostat] | 96.9%
COc1nc(N)nc2c1ncn2[C@@H]1O[C@H](CO)[C@@H](O)[C@@H]1O [Nelarabine] | 98.7% and 104%
Cc1ccc(Nc2nccc(N(C)c3ccc4c(C)n(C)nc4c3)n2)cc1S(N)(=O)=O [Pazopanib] | 103%
O=C(CCBr)N1CCN(C(=O)CCBr)CC1 [Pipobroman] | 111%
C[C@]12C=CC(=O)C=C1CC[C@@H]1[C@@H]2[C@@H](O)C[C@@]2(C)[C@H]1CC[C@]2(O)C(=O)CO [Prednisolone] | 98.3%

Same assay, conditions: 100 nM; incubation time: 72 h

Structure (SMILES) | normalised viability
Nc1ccccc1NC(=O)c1ccc(CNc2nccc(-c3cccnc3)n2)cc1 [Mocetinostat] | 97.7%
COc1nc(N)nc2c1ncn2[C@@H]1O[C@H](CO)[C@@H](O)[C@@H]1O [Nelarabine] | 97.4% and 106%
Cc1ccc(Nc2nccc(N(C)c3ccc4c(C)n(C)nc4c3)n2)cc1S(N)(=O)=O [Pazopanib] | 99.9%
O=C(CCBr)N1CCN(C(=O)CCBr)CC1 [Pipobroman] | 103%
C[C@]12C=CC(=O)C=C1CC[C@@H]1[C@@H]2[C@@H](O)C[C@@]2(C)[C@H]1CC[C@]2(O)C(=O)CO [Prednisolone] | 98.4%

These compounds were tested on CAL-85-1 in the same assay as above. Conditions: 0.3 nM; incubation time: 72 h.
Summary of the method: as §1

Structure (SMILES) | normalised viability
O=C1c2c(O)ccc(O)c2C(=O)c2c(NCCNCCO)ccc(NCCNCCO)c21 [Mitoxantrone] | 90.3%
CNC(=O)c1cc(Oc2ccc(NC(=O)Nc3ccc(Cl)c(C(F)(F)F)c3)cc2)ccn1 [Sorafenib] | 98.3% and 99.7%
CCN(CC)CCNC(=O)c1c(C)[nH]c(/C=C2\C(=O)Nc3ccc(F)cc32)c1C [Sunitinib] | 92% and 101%
CC[C@@]1(O)C(=O)OCc2c1cc1n(c2=O)Cc2cc3c(CN(C)C)c(O)ccc3nc2-1 [Topotecan] | 93.2%

Same assay, conditions: 0.75 nM; incubation time: 72 h

Structure (SMILES) | normalised viability
c1cc(CN2CCCNCCNCCCNCC2)ccc1CN1CCCNCCNCCCNCC1 [Plerixafor] | 91.9%

Same assay, conditions: 3 nM; incubation time: 72 h

Structure (SMILES) | normalised viability
O=C1c2c(O)ccc(O)c2C(=O)c2c(NCCNCCO)ccc(NCCNCCO)c21 [Mitoxantrone] | 84.3%
Nc1ccccc1NC(=O)c1ccc(CNc2nccc(-c3cccnc3)n2)cc1 [Mocetinostat] | 93.3%
COc1nc(N)nc2c1ncn2[C@@H]1O[C@H](CO)[C@@H](O)[C@@H]1O [Nelarabine] | 99.3% and 102%
Cc1ccc(Nc2nccc(N(C)c3ccc4c(C)n(C)nc4c3)n2)cc1S(N)(=O)=O [Pazopanib] | 92.2%
O=C(CCBr)N1CCN(C(=O)CCBr)CC1 [Pipobroman] | 99.3%
C[C@]12C=CC(=O)C=C1CC[C@@H]1[C@@H]2[C@@H](O)C[C@@]2(C)[C@H]1CC[C@]2(O)C(=O)CO [Prednisolone] | 101%
CNC(=O)c1cc(Oc2ccc(NC(=O)Nc3ccc(Cl)c(C(F)(F)F)c3)cc2)ccn1 [Sorafenib] | 104% and 98.8%
CCN(CC)CCNC(=O)c1c(C)[nH]c(/C=C2\C(=O)Nc3ccc(F)cc32)c1C [Sunitinib] | 90.5% and 104%
CC[C@@]1(O)C(=O)OCc2c1cc1n(c2=O)Cc2cc3c(CN(C)C)c(O)ccc3nc2-1 [Topotecan] | 85.2%

Same assay, conditions: 7.5 nM; incubation time: 72 h

Structure (SMILES) | normalised viability
c1cc(CN2CCCNCCNCCCNCC2)ccc1CN1CCCNCCNCCCNCC1 [Plerixafor] | 91.3%

Same assay, conditions: 10 nM; incubation time: 72 h

Structure (SMILES) | normalised viability
O=C1c2c(O)ccc(O)c2C(=O)c2c(NCCNCCO)ccc(NCCNCCO)c21 [Mitoxantrone] | 86.5%
CNC(=O)c1cc(Oc2ccc(NC(=O)Nc3ccc(Cl)c(C(F)(F)F)c3)cc2)ccn1 [Sorafenib] | 105% and 108%
CCN(CC)CCNC(=O)c1c(C)[nH]c(/C=C2\C(=O)Nc3ccc(F)cc32)c1C [Sunitinib] | 98.1% and 98.9%
CC[C@@]1(O)C(=O)OCc2c1cc1n(c2=O)Cc2cc3c(CN(C)C)c(O)ccc3nc2-1 [Topotecan] | 96.9%

Same assay, conditions: 25 nM; incubation time: 72 h

Structure (SMILES) | normalised viability
c1cc(CN2CCCNCCNCCCNCC2)ccc1CN1CCCNCCNCCCNCC1 [Plerixafor] | 89.2%

Same assay, conditions: 30 nM; incubation time: 72 h

Structure (SMILES) | normalised viability
Nc1ccccc1NC(=O)c1ccc(CNc2nccc(-c3cccnc3)n2)cc1 [Mocetinostat] | 82%
COc1nc(N)nc2c1ncn2[C@@H]1O[C@H](CO)[C@@H](O)[C@@H]1O [Nelarabine] | 98.7% and 100%
